Broadly, the pKa is the pH at which an ionisable group is half protonated. A higher pKa goes with a weaker acid or stronger base.

The conditions of the first data set: acidic group.
In turn, `O=C1COC(=O)N1` showed a pKa of 5.84.

In turn, `Cc1nnn(CC(=O)O)n1` gave a pKa of 2.23.

`Cc1ccc(C(=O)O)cc1` showed a pKa of 4.37.

As for `O=C(c1ccc(Cl)cc1)c1cc[nH]n1`, the pKa is 11.9.

Regarding `CCC(=O)c1nc(C(=O)O)cs1`, the pKa was 3.7.

As for `Cc1cc(N)c2ccccc2c1O`, the pKa came to 10.1.

Regarding `CCc1cc(O)cc(C)c1Cl`, the pKa came to 9.6.

For the compound `CCOC(=O)C(CC)C(C)=O` (stereo unspecified), the pKa was 12.7.

As to `Cc1ccc(Cl)cc1C(=O)O`, the pKa came to 3.63.

Compound `Cc1cc(O)cc(C)c1C#N` had a pKa of 8.21.

`CC1(C)S[C@H]2C(C(=O)[O-])[NH+]=C(CCCC([NH3+])C(=O)[O-])N2C1C(=O)O` (stereo partly specified) returned a pKa of 3.1.

With `Nc1nc(N)c2[nH]c(N)nc2n1`, the pKa came out at 10.8.

In turn, `CCCCCP(=O)(O)CCCCC` had a pKa of 3.23.

In the case of `CC(C)(Cl)C(=O)O`, the pKa was determined as 2.97.

`NC1=[NH+][C@H](C(=O)O)[C@@H]([C@H](O)C[NH3+])N1` came in with a pKa of 2.4.

As for `Cc1ccc(S)cc1`, the pKa came out at 6.47.

`CN(C)c1cccc2c(S(=O)(=O)NCC[NH+](C)C)cccc12` returned a pKa of 8.33.

For `[O-]c1cc(O)nc[nH+]1`, the pKa is 5.4.

For the compound `O=C(O)C1(O)CCC1`, the pKa is 3.88.

As for `Oc1cc[nH+]nc1`, the pKa worked out at 1.07.

`Cc1cccc(Cl)c1O` came in with a pKa of 8.7.

Turning to `NC(=[NH2+])NOCC(=O)O`, the pKa came to 2.69.

`Cc1ccc(O)c(CO)c1` came in with a pKa of 10.2.

`Oc1ccccc1C1CCNCCNCCCNCCN1` (stereo unspecified) registered a pKa of 10.8.

The compound `O=c1ccc(O)c(Br)cc1` registered a pKa of 4.9.

Turning to `[O-]/N=C1\CCCCC\C1=N/O`, the pKa came out at 12.3.

`Cc1cc(-c2c(C)noc2O)on1` registered a pKa of 3.2.

Take `Cc1cc(C)c(C)c(O)c1`: the pKa amounted to 10.6.

Take `Cc1cccc(O)c1`: the pKa turned out to be 10.

Turning to `CC1(C)[C@@H]2CC[C@]1(C)C(=O)C2C(=O)O` (stereo partly specified), the pKa stood at 3.76.

The compound `CCOC(=O)c1cccc(O)c1` returned a pKa of 9.05.

`Nc1nc([O-])c2nc[nH]c2n1` registered a pKa of 12.6.

Compound `O=C([O-])c1cccc(O)c1` displayed a pKa of 9.81.

In the case of `CC(=O)c1cc[nH]n1`, the pKa was determined as 11.8.

`O=C1CNC(=O)[C@H](Cc2ccc(O)cc2)N1`: the pKa was found to be 9.47.

As for `O=Cc1cccnc1C(=O)O`, the pKa was 3.7.

As to `Cc1ccccc1-c1nnn[nH]1`, the pKa turned out to be 4.09.

For `Cn1c(=O)c2c([nH]c(=O)n2C)n(C)c1=O`, the pKa came out at 6.

`C/C(O)=C/C(=O)O` yielded a pKa of 4.05.

In turn, `Cc1c(O)cncc1C1CCCCC1` yielded a pKa of 10.

`O=C(O)C1(O)CCCCCC1` yielded a pKa of 4.04.

Compound `CC(=O)Nc1ccc(O)c([N+](=O)[O-])c1` showed a pKa of 6.78.

With `C[n+]1cccc2cc(S)ccc21`, the pKa was 4.12.

As to `Cc1cccc(C(=O)O)[nH+]1`, the pKa amounted to 0.9.

Turning to `CC[NH+]1CCC[C@@H]1CNC(=O)c1c(O)cccc1OC`, the pKa came out at 8.7.

Compound `O=C(O)C1=C(CO)CC1` gave a pKa of 4.16.

`CCOc1ccc(C)c(C(=O)O)c1`: the pKa was determined as 3.86.

As to `O=C([O-])C[NH+](CC(=O)[O-])Cc1ccccc1O`, the pKa was 8.17.

For `CCOC(=O)c1ccccc1-n1nc(O)cc1-c1ccccc1`, the pKa amounted to 12.4.

On to `COC(=O)CS`, for which the pKa is 7.57.

In turn, `CC(C)CCOc1ccccc1/C=C\C(=O)O` gave a pKa of 4.38.

Staying with this data set, now noted: basic group.
Take `COc1ccc(/N=N/c2ccncc2)cc1`: the pKa is 4.53.

Turning to `CCOc1ccccc1N`, the pKa worked out at 4.51.

As to `Nc1ccc(-c2cnc(-c3ccc(Cl)cc3)o2)cc1`, the pKa was determined as 3.52.

Take `CC(O)CNCCN` (stereo unspecified): the pKa came out at 9.86.

As for `COc1ccc(-c2cn3ccnc3[nH]2)c(OC)c1`, the pKa was found to be 6.76.

For the compound `Cc1nnc2c(c1C)CCC2`, the pKa stood at 5.36.

`CCOCCn1c(CN2CC[NH+](CCCCn3cccn3)CC2)nc2ccccc21`: the pKa was 4.8.

As to `Nc1cccnc1`, the pKa is 6.08.

`C1CCC2(CC1)N1CCCN12` (stereo unspecified) displayed a pKa of 5.19.

In the case of `Cc1nc2ccccc2c(NCCC[NH+](C)C)c1[N+](=O)[O-]`, the pKa stood at 5.35.

In the case of `Nc1cccc2cnccc12`, the pKa was found to be 5.59.

In the case of `CN(C)CCCN(C)C(=O)/C=N/[O-]`, the pKa was 9.83.

Take `CCOCCN(C)c1ccccc1`: the pKa turned out to be 4.8.

Turning to `CN(C)C[C@H]1[C@@H]2CC[C@@](C)([C@H]1N)C2(C)C`, the pKa worked out at 9.84.

Regarding `CN1C[C@@H](C(=O)[O-])C=C2c3cccc4[nH]cc(c34)C[C@@H]21`, the pKa worked out at 7.85.

Compound `c1cc(N2CCOCC2)ccc1N1CCCCC1` had a pKa of 6.7.

Regarding `Cc1nccc2c1[nH]c1ccc([N+](=O)[O-])cc12`, the pKa turned out to be 6.24.

Regarding `C=C(C)C(=O)OCCN(C)CCCC`, the pKa came to 8.27.

`Nc1nc(N)c2[nH]c(N)nc2n1`: the pKa came to 6.23.

With `CC(C)CC(N)C(=O)[O-]` (stereo unspecified), the pKa came out at 9.76.

In the case of `Brc1ccc2c(c1)CCN2`, the pKa turned out to be 3.7.

As to `Cc1cc(C)n(C)n1`, the pKa was determined as 3.96.

`CN(C)c1cccc2c(S(=O)(=O)NCC[NH+](C)C)cccc12` returned a pKa of 3.57.

On to `NCC(=O)Nc1ccccc1`, for which the pKa was 8.12.

As for `CCCCCCCCN(CCO)CC(O)CC` (stereo unspecified), the pKa turned out to be 8.3.

`CN(C)CC(CSC#N)SC#N` (stereo unspecified) returned a pKa of 6.1.

The compound `C[Si](C)(C)CCCN` showed a pKa of 10.8.

Turning to `C1CNCC[NH2+]CCN1`, the pKa is 6.97.

The compound `NCCN1CCOCC1` showed a pKa of 9.45.

The compound `Nc1cncnc1` showed a pKa of 2.83.

In turn, `O=[N+]([O-])c1cccc2nc3ccccc3c(NCCO)c12` registered a pKa of 7.2.

The compound `COCc1cccc(COC)n1` registered a pKa of 3.43.

In turn, `OCCN(CCc1nnn[n-]1)CCc1nnn[n-]1` had a pKa of 8.9.

Compound `c1ccc2cc(NCCNc3ccc4ccccc4c3)ccc2c1` had a pKa of 3.7.

The compound `C1=C(c2nc3ccccc3s2)C2CCN1CC2` showed a pKa of 7.4.

Consider `CCC(C)(C)N(C)C(C)C`, for which the pKa is 11.2.

On to `Nc1nc([O-])c2nc[nH]c2n1`, for which the pKa is 9.3.

`c1cnc2ccc3ncccc3c2c1` returned a pKa of 4.

Consider `c1cnc2c(c1)ccc1cccnc12`, for which the pKa came to 4.96.

On to `Nc1ccc(-c2cnc(-c3ccc(Br)cc3)o2)cc1`, for which the pKa was determined as 3.51.

As to `CCc1ccccn1`, the pKa stood at 5.98.

With `CN1CCCCCN1C`, the pKa stood at 6.66.

On to `CCC(C)Nc1ccccc1` (stereo unspecified), for which the pKa amounted to 5.47.

`CCN(CC)c1ccccc1C`: the pKa was determined as 7.18.

In the case of `CN(C)CCC[NH+](C)C`, the pKa was 7.73.

In turn, `CNCCc1ccc(O)cc1` registered a pKa of 9.36.

`CCCNCC(=O)O` yielded a pKa of 10.

On to `CN[C@H]1C[C@@H]1NC`, for which the pKa amounted to 8.73.

Turning to `Cc1c(O)cncc1C1CCCCC1`, the pKa was 5.6.

For the compound `C(=C/c1ccncc1)/c1ccncc1`, the pKa stood at 5.57.

In the case of `C[C@@H]1CCC[C@H](C)N1CC(C)(C)O`, the pKa amounted to 10.7.

Take `Cn1ccnc1-c1ccccn1`: the pKa is 5.7.

Compound `CN=C1C(C)(C)c2ccccc2C1(C)C` had a pKa of 7.

Compound `CC(C)(C)C(=O)n1cnc2ccccc21` gave a pKa of 2.

Compound `CCCn1ccnc1C=O` displayed a pKa of 5.15.

(Values after the pKa sets of Baltruschat and Czodrowski (2020).)
